Data published in the supplement of paper PMC10307832.

Key:
Experiment in all cases: relative viability (nuclei count vs DMSO), 5 days (fraction); higher = more cells survive
[1] = compound: Cn1cnc2c(F)c(Nc3ccc(Br)cc3Cl)c(C(=O)NOCCO)cc21 [Selumetinib] + CS(=O)(=O)CCNCc1ccc(-c2ccc3ncnc(Nc4ccc(OCc5cccc(F)c5)c(Cl)c4)c3c2)o1 [Lapatinib] (partner 2 µM)
Procedure, shortened: (§1)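 Relative viability was taken as the ratio of nuclei in treated wells to nuclei in vehicle wells. Lung cancer cell lines in 1536-well plates received compounds by pin tool one day after seeding, either one drug alone or a fixed anchor-drug dose plus five library-drug doses (not always all listed) in √10 steps. Nuclei were counted on 4× images after 5 days of treatment, and values are medians of duplicate plates.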

[2] = compound: CC1(C)CCC(CN2CCN(c3ccc(C(=O)NS(=O)(=O)c4ccc(NCC5CCOCC5)c([N+](=O)[O-])c4)c(Oc4cnc5[nH]ccc5c4)c3)CC2)=C(c2ccc(Cl)cc2)C1 [Venetoclax] + CS(=O)(=O)N1CCN(Cc2cc3nc(-c4cccc5[nH]ncc45)nc(N4CCOCC4)c3s2)CC1 [Pictilisib] (partner 1 µM)
Procedure, shortened: as §1

[3] = compound: CC1(C)CCC(CN2CCN(c3ccc(C(=O)NS(=O)(=O)c4ccc(NCC5CCOCC5)c([N+](=O)[O-])c4)c(Oc4cnc5[nH]ccc5c4)c3)CC2)=C(c2ccc(Cl)cc2)C1 [Venetoclax] + CS(=O)(=O)CCNCc1ccc(-c2ccc3ncnc(Nc4ccc(OCc5cccc(F)c5)c(Cl)c4)c3c2)o1 [Lapatinib] (partner 2 µM)
Procedure, shortened: as §1

[4] = compound: Cn1cnc2c(F)c(Nc3ccc(Br)cc3Cl)c(C(=O)NOCCO)cc21 [Selumetinib] + Cc1nc(NC(=O)N2CCC[C@H]2C(N)=O)sc1-c1ccnc(C(C)(C)C(F)(F)F)c1 [Alpelisib] (partner 2 µM)
Procedure, shortened: as §1

Cell Line	relative viability ([1]; first compound 0.02 µM)	relative viability ([1]; first compound 0.06325 µM)	relative viability ([1]; first compound 0.2 µM)	relative viability ([1]; first compound 0.6325 µM)	relative viability ([2]; first compound 0.01 µM)	relative viability ([2]; first compound 0.03162 µM)	relative viability ([2]; first compound 0.1 µM)	relative viability ([2]; first compound 0.3162 µM)	relative viability ([2]; first compound 1 µM)	relative viability ([3]; first compound 0.01 µM)	relative viability ([3]; first compound 0.03162 µM)	relative viability ([3]; first compound 0.1 µM)	relative viability ([3]; first compound 0.3162 µM)	relative viability ([3]; first compound 1 µM)	relative viability ([4]; first compound 0.02 µM)	relative viability ([4]; first compound 0.06325 µM)	relative viability ([4]; first compound 0.2 µM)	relative viability ([4]; first compound 0.6325 µM)
SK-MES-1	0.432	0.401	0.361	0.371	0.345	0.398	0.315	0.334	0.349	0.462	0.53	0.461	0.425	0.463	0.851	0.587	0.56	0.396
NCI-H2170	0.265	0.267	0.274	0.247	0.266	0.3	0.296	0.306	0.302	0.255	0.29	0.255	0.254	0.268	0.763	0.828	0.736	0.658
NCI-H2126	0.714	0.671	0.7	0.667	0.482	0.538	0.487	0.528	0.488	0.738	0.731	0.734	0.769	0.73	0.679	0.675	0.58	0.532
EPLC-272H	0.801	0.722	0.558	0.643		0.3	0.327	0.403	0.33		0.87	0.89	1.08	0.921	0.749	0.656	0.58	0.66
PC-14	0.285	0.252	0.234	0.207	0.588	0.649	0.693	0.81	0.604	0.367	0.328	0.291	0.361	0.323	0.92	0.835	0.925	0.848
NCI-H520	0.894	0.799	0.86	0.883	0.304	0.351	0.283	0.257	0.286	0.86	0.979	0.76	0.903	0.732	0.992	0.762	0.86	1
LXF-289	0.874	0.839	0.761	0.758	0.718	0.739	0.795	0.771	0.762	0.956	0.925	0.874	0.906	0.809	0.928	0.854	0.841	0.762
NCI-H596	0.961	1.03	0.921	0.68	0.402	0.408	0.354	0.391	0.364	1.09	1.24	0.971	1.15	1.11	0.548	0.43	0.353	0.162
NCI-H727	0.562	0.443	0.349	0.325	0.354	0.419	0.404	0.37	0.398	0.904	1	0.857	0.791	0.753	0.309	0.225	0.253	0.202
NCI-H838	0.838	0.732	0.861	0.671	0.661	0.48	0.474	0.465	0.534	0.977	1.07	0.962	0.978	0.891	0.847	0.81	0.807	0.704
NCI-H1793	0.827	0.581	0.503	0.504	0.371	0.445	0.328	0.241	0.321	0.677	0.758	0.443	0.613	0.551	0.786	0.646	0.41	0.452
